Assay results from ChEMBL document CHEMBL4052741, “Macrocyclic inhibitors of Factor XIa: Discovery of alkyl-substituted macrocyclic amide linkers with improved potency” (Bioorg Med Chem Lett, 2017).

Legend:
Plasma = assay: Anticoagulant activity in human platelet rich plasma assessed as plasma concentration required for 50% increase in clotting time by aPTT assay; assay type: functional
Coagulation factor XI = Coagulation factor XI (Homo sapiens, UniProt P03951); assay: Inhibition of human Factor XIa using S-2366 as chromogenic substrate after 60 mins by Lineweaver-Burk plot analysis
[1] = Half life in Sprague-Dawley rat at 0.55 mg/kg, iv or 1.09 mg/kg, po administered as cassette dose by LC-MS/MS analysis; assay type: ADME, organism-based; details: in vivo
[2] = AUC in Sprague-Dawley rat at 0.55 mg/kg, iv or 1.09 mg/kg, po by LC-MS/MS analysis; assay type: ADME, organism-based; details: in vivo
[3] = Permeability of the compound from basolateral to apical side in human Caco2 cells; assay type: ADME, cell-based; details: Caco-2, read-out: permeability
[4] = Permeability of the compound from apical to basolateral side in human Caco2 cells; assay type: ADME, cell-based; details: Caco-2, read-out: permeability
[5] = Oral bioavailability in Sprague-Dawley rat at 1.09 mg/kg administered as cassette dose by LC-MS/MS analysis; assay type: ADME, organism-based; details: in vivo
[6] = Clearance in Sprague-Dawley rat at 0.55 mg/kg, iv or 1.09 mg/kg, po administered as cassette dose by LC-MS/MS analysis; assay type: ADME, organism-based; details: in vivo
[7] = Volume of distribution at steady state in Sprague-Dawley rat at 0.55 mg/kg, iv or 1.09 mg/kg, po administered as cassette dose by LC-MS/MS analysis; assay type: ADME, organism-based; details: in vivo, read-out: Vdss
[8] = Protein binding in human plasma; assay type: ADME, cell-free; details: read-out: PPB (converted)
[9] = Half life in human liver microsomes; assay type: ADME, microsome
[10] = Clearance in Sprague-Dawley rat at 0.75 mg/kg, iv or 1.5 mg/kg, po administered as cassette dose by LC-MS/MS analysis; assay type: ADME, organism-based; details: in vivo
[11] = Half life in Sprague-Dawley rat at 0.75 mg/kg, iv or 1.5 mg/kg, po administered as cassette dose by LC-MS/MS analysis; assay type: ADME, organism-based; details: in vivo
[12] = Volume of distribution at steady state in Sprague-Dawley rat at 0.75 mg/kg, iv or 1.5 mg/kg, po administered as cassette dose by LC-MS/MS analysis; assay type: ADME, organism-based; details: in vivo, read-out: Vdss
[13] = Oral bioavailability in Sprague-Dawley rat at 1.5 mg/kg by LC-MS/MS analysis; assay type: ADME, organism-based; details: in vivo
[14] = AUC in Sprague-Dawley rat at 0.75 mg/kg, iv or 1.5 mg/kg, po by LC-MS/MS analysis; assay type: ADME, organism-based; details: in vivo
[15] = AUC in Sprague-Dawley rat at 0.55 mg/kg, iv or 1.11 mg/kg, po by LC-MS/MS analysis; assay type: ADME, organism-based; details: in vivo
[16] = Oral bioavailability in Sprague-Dawley rat at 1.11 mg/kg by LC-MS/MS analysis; assay type: ADME, organism-based; details: in vivo
[17] = Clearance in Sprague-Dawley rat at 0.55 mg/kg, iv or 1.11 mg/kg, po administered as cassette dose by LC-MS/MS analysis; assay type: ADME, organism-based; details: in vivo
[18] = Half life in Sprague-Dawley rat at 0.55 mg/kg, iv or 1.11 mg/kg, po administered as cassette dose by LC-MS/MS analysis; assay type: ADME, organism-based; details: in vivo
[19] = Volume of distribution at steady state in Sprague-Dawley rat at 0.55 mg/kg, iv or 1.11 mg/kg, po administered as cassette dose by LC-MS/MS analysis; assay type: ADME, organism-based; details: in vivo, read-out: Vdss

Sequence of Coagulation factor XI (P03951 19-387 limits assumed): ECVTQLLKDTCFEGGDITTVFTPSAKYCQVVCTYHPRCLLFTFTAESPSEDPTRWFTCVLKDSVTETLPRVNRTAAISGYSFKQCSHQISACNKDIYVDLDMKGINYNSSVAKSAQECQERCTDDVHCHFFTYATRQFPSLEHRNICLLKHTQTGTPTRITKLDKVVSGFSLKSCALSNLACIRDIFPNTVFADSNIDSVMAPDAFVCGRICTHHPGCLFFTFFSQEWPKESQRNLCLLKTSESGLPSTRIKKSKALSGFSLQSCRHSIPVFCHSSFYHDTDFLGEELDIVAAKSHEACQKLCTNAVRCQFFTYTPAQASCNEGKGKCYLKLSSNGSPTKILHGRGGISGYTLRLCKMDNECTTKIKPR
Sequence of Coagulation factor XI (P03951 388-625 limits assumed): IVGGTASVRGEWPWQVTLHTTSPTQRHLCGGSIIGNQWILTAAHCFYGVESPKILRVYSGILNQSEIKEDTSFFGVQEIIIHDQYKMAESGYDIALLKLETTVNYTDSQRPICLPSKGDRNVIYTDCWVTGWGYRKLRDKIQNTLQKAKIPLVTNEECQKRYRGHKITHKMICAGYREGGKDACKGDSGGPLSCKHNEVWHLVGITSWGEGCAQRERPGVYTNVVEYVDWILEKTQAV

Row | Compound | Ki (Coagulation factor XI) [nM] | EC1.5 (Plasma) [µM] | other results
1 | CC[C@@H]1CCC[C@H](NC(=O)/C=C/c2cc(Cl)ccc2-n2cnnn2)c2nc(c[nH]2)-c2ccc(NC(=O)OC)cc2NC1=O | – | 0.52 | –
2 | COC(=O)Nc1ccc2c(c1)NC(=O)[C@@H](C(C)C)CCC[C@H](NC(=O)/C=C/c1cc(Cl)ccc1-n1cnnn1)c1nc-2c[nH]1 | 21 | 64 | –
3 | COC(=O)Nc1ccc2c(c1)NC(=O)C(C)CCCC[C@H](NC(=O)/C=C/c1cc(Cl)ccc1-n1cnnn1)c1nc-2c[nH]1 (single isomer, unassigned; diastereomer A) | 6.5 | 5.3 | –
4 | COC(=O)Nc1ccc2c(c1)NC(=O)CC/C=C/C[C@H](NC(=O)/C=C/c1cc(Cl)ccc1-n1cnnn1)c1nc-2c(Cl)[nH]1 | – | – | half-life [1]: 42 min; AUC [2]: 0.002 µM·h; Papp B→A [3]: 5.8 ×10⁻⁶ cm/s; Papp A→B [4]: < 1.5 ×10⁻⁶ cm/s; bioavailability [5]: 0.2%; clearance [6]: 24 mL/min/kg; Vd [7]: 0.4 L/kg
5 | COC(=O)Nc1ccc2c(c1)NC(=O)C(C)C/C=C/C[C@H](NC(=O)/C=C/c1cc(Cl)ccc1-n1cnnn1)c1nc-2c[nH]1 (single isomer, unassigned; diastereomer B) | 2.7 | 1.2 | –
6 | COC(=O)Nc1ccc2c(c1)NC(=O)CCCCC[C@H](NC(=O)/C=C/c1cc(Cl)ccc1-n1cnnn1)c1nc-2c[nH]1 | – | – | fraction unbound [8]: 0.038
7 | COC(=O)Nc1ccc2c(c1)NC(=O)C(C)C/C=C/C[C@H](NC(=O)/C=C/c1cc(Cl)ccc1-n1cnnn1)c1nc-2c[nH]1 (single isomer, unassigned; diastereomer A) | 0.33 | 0.67 | –
8 | COC(=O)Nc1ccc2c(c1)NC(=O)[C@H](C)CCC[C@H](NC(=O)/C=C/c1cc(Cl)ccc1-n1cnnn1)c1nc-2c[nH]1 | – | 0.39 | –
9 | COC(=O)Nc1ccc2c(c1)NC(=O)[C@@H](C)CCC[C@H](NC(=O)/C=C/c1cc(Cl)ccc1-n1cnnn1)c1nc-2c[nH]1 | – | 0.63 | –
10 | COC(=O)Nc1ccc2c(c1)NC(=O)C[C@@H](C)/C=C/C[C@H](NC(=O)/C=C/c1cc(Cl)ccc1-n1cnnn1)c1nc-2c[nH]1 | 0.13 | 0.38 | –
11 | COC(=O)Nc1ccc2c(c1)NC(=O)C[C@H](C)/C=C/C[C@H](NC(=O)/C=C/c1cc(Cl)ccc1-n1cnnn1)c1nc-2c[nH]1 | 2 | 0.98 | –
12 | COC(=O)Nc1ccc2c(c1)NC(=O)[C@H](C(C)C)CCC[C@H](NC(=O)/C=C/c1cc(Cl)ccc1-n1cnnn1)c1nc-2c[nH]1 | 0.14 | 1.1 | –
13 | CC[C@H]1CCC[C@H](NC(=O)/C=C/c2cc(Cl)ccc2-n2cnnn2)c2nc(c[nH]2)-c2ccc(NC(=O)OC)cc2NC1=O | – | 4 | –
14 | COC(=O)Nc1ccc2c(c1)NC(=O)[C@H](C)CCC[C@H](NC(=O)c1c(F)cc(C)cc1F)c1nc-2c(Cl)[nH]1 | 10 | 2 | Papp B→A [3]: 11.1 ×10⁻⁶ cm/s; Papp A→B [4]: < 1.5 ×10⁻⁶ cm/s; half-life [9]: 8 min
15 | COC(=O)Nc1ccc2c(c1)NC(=O)C[C@@H](C)/C=C/C[C@H](NC(=O)c1c(F)cc(C)cc1F)c1nc-2c(Cl)[nH]1 | 12 | 2.7 | clearance [10]: 6 mL/min/kg; Papp B→A [3]: 18.9 ×10⁻⁶ cm/s; half-life [11]: 54 min; Papp A→B [4]: < 1.5 ×10⁻⁶ cm/s; Vd [12]: 0.3 L/kg; bioavailability [13]: 16%; AUC [14]: 0.991 µM·h; half-life [9]: 35 min
16 | COC(=O)Nc1ccc2c(c1)NC(=O)C[C@H](C)CCC[C@H](NC(=O)/C=C/c1cc(Cl)ccc1-n1cnnn1)c1nc-2c[nH]1 | – | 27 | –
17 | COC(=O)Nc1ccc2c(c1)NC(=O)CC/C=C/C[C@H](NC(=O)c1c(F)cc(C)cc1F)c1nc-2c(Cl)[nH]1 | 16 | 6.6 | AUC [15]: 2.08 µM·h; Papp B→A [3]: 20 ×10⁻⁶ cm/s; bioavailability [16]: 41%; Papp A→B [4]: < 1.5 ×10⁻⁶ cm/s; clearance [17]: 5.6 mL/min/kg; half-life [18]: 54 min; Vd [19]: 0.4 L/kg; half-life [9]: 17 min
18 | COC(=O)Nc1ccc2c(c1)NC(=O)C(C)CCCC[C@H](NC(=O)/C=C/c1cc(Cl)ccc1-n1cnnn1)c1nc-2c[nH]1 (single isomer, unassigned; diastereomer B) | 31 | 32 | –
19 | COC(=O)Nc1ccc2c(c1)NC(=O)C[C@@H](C)CCC[C@H](NC(=O)/C=C/c1cc(Cl)ccc1-n1cnnn1)c1nc-2c[nH]1 | – | 1.1 | fraction unbound [8]: 0.02
20 | COC(=O)Nc1ccc2c(c1)NC(=O)C[C@@H](C)CCC[C@H](NC(=O)c1c(F)cc(C)cc1F)c1nc-2c(Cl)[nH]1 | 44 | 12 | Papp B→A [3]: 25.1 ×10⁻⁶ cm/s; Papp A→B [4]: 1.8 ×10⁻⁶ cm/s; half-life [9]: 45 min

The next lines start with results.

Row | Ki (Coagulation factor XI) [nM] | Compound | EC1.5 (Plasma) [µM] | other results
21 | 36 | COC(=O)Nc1ccc2c(c1)NC(=O)CC(C)CC[C@H](NC(=O)/C=C/c1cc(Cl)ccc1-n1cnnn1)c1nc-2c[nH]1 (single isomer, unassigned; diastereomer A) | 37 | –
22 | 18 | COC(=O)Nc1ccc2c(c1)NC(=O)CCC(C)CC[C@H](NC(=O)/C=C/c1cc(Cl)ccc1-n1cnnn1)c1nc-2c[nH]1 (single isomer, unassigned; diastereomer B) | 12 | –
23 | 35 | COC(=O)Nc1ccc2c(c1)NC(=O)CC(C)CC[C@H](NC(=O)/C=C/c1cc(Cl)ccc1-n1cnnn1)c1nc-2c[nH]1 (single isomer, unassigned; diastereomer B) | 31 | –
24 | 5.9 | COC(=O)Nc1ccc2c(c1)NC(=O)CCC(C)CC[C@H](NC(=O)/C=C/c1cc(Cl)ccc1-n1cnnn1)c1nc-2c[nH]1 (single isomer, unassigned; diastereomer A) | 2.5 | –
25 | 0.06 | COC(=O)Nc1ccc2c(c1)NC(=O)C[C@@H](C)CCC[C@H](NC(=O)/C=C/c1cc(Cl)ccc1-n1cnnn1)c1nc-2c(Cl)[nH]1 | 0.57 | –
26 | 0.07 | COC(=O)Nc1ccc2c(c1)NC(=O)[C@H](C)CCC[C@H](NC(=O)/C=C/c1cc(Cl)ccc1-n1cnnn1)c1nc-2c(Cl)[nH]1 | 1.2 | –
